Test system: sperm of thawed frozen semen
Test: ratio between X sperm and Y sperm (real time PCR) in semen recovered by the sperm screening device after the sperm preservation step with a phenoxazine compound
Format: cell-based, Holstein cattle
Details: 25 μM brilliant cresyl blue + 5 mM glucose-6-phosphate, no electron accepting substance added, 5% CO2
Procedure: Frozen semen of WHO OCEANIC JOVIAN ET (Holstein cattle) was thawed in accordance with the predetermined steps, 200 μl of thawed semen was sampled and was put into a tube having a capacity of 1.5 ml. Then, semen was subjected to the centrifugal separation (7 minutes, 2000 rpm), and a half of supernatant of the semen after being subjected to the centrifugal separation was thrown away and approximately 1004 of semen was left in the tube.
An approximately 100 μL of buffer solution (obtained by adding 6 mg/mL BSA+10 μg/mL of gentamycin+5 mM EGTA to the commercially available “SP-TALP” solution) is added into the tube, the buffer solution is stirred lightly and, thereafter, the buffer solution was incubated for 50 minutes at 37° with 5% CO2.
Next, the tube was subjected to the centrifugal separation again (7 minutes, 2000 rpm), and a supernatant of the solution was thrown away, and an approximately 100 μL of buffer solution (obtained by adding 6 mg/mL BSA+10 […] to the commercially available “SP-TALP” solution; not containing EGTA) was added into the tube and, thereafter, the solution was stirred lightly.
The tube was subjected to the centrifugal separation again (7 minutes, 2000 rpm), and 100 μL of a supernatant of the solution was thrown away, and an approximately 100 μL of buffer solution (obtained by adding 6 mg/mL BSA+10 μg/mL gentamycin +25 μM brilliant cresyl blue +5 mM glucose-6-phosphate to the commercially available “SP-TALP” solution) was added into the tube and, thereafter, the solution was incubated at 37° C. with 5% CO2 (sperm preservation step). […]
Thereafter, sperm having high motility were recovered by using the sperm screening device according to this embodiment. Then, with respect to the acquired semen for artificial insemination, a ratio between X sperm and Y sperm was investigated using a real time PCR method.

[1] = incubation 30 minutes at 37° C.
[2] = incubation 50 minutes at 37° C.

## brilliant cresyl blue
[1]
  ratio of X sperm: 39%
  ratio of Y sperm: 61%
[2]
  ratio of X sperm: 35%
  ratio of Y sperm: 65%
